Patent US20250041624A1, “METHOD FOR ENHANCING ACTIVITY OF PHOTOSENSITIZER BY MAGNETIC FIELD” (PEKING UNIVERSITY, priority 2021, published 2025)
Values joined by “and” are separate entries in the source; they are usually repeats but may differ in a detail not shown here. Identical values can stand only once. Like-named read-outs stand apart in the source and are kept apart here.

How the values were obtained:
[1] = Body weight, abnormal signs and H&E staining of major organs of treated mice; type: in vivo; settings: all groups
From the text: Test (two): After sacrificing the mice on day 14, tumor tissue and major organs (heart, liver, spleen, lungs and kidney) are collected and detected histologically. Tumor tissue and major organs are fixed by 10% neutral formalin solution. Hematoxylin-Eosin (H&E) staining is used to analyze toxicity of light and magnetic field effects on tumor and normal organs. Terminal deoxynucleotidyl transferase-mediated dUTP nick end labeling (TUNEL) staining is used to detect apoptosis in tumor tissue, and expression of cleaved Caspase-3, Bax and Bcl-2 in tumor tissue is simultaneously detected.

[2] = test system: HeLa cells; assay: CCK-8 cell viability of HeLa cells under light and magnetic field; type: cell-based; settings: for CV(%) (cell viability): final concentration of photosensitizer 30 mol/L (so in the source), light 10 min; for mfe(CV)(%) =(CV0−CVB)/CV0×100%: photosensitizer 30 mol/L (so in the source); for IC50: white light 400-700 nm 5 mW·cm−2, 10 min, read-out: RB Half inhibitory concentration
Procedure: (1) Appropriate amounts of HeLa cells are added to DMEM medium (Corning, USA, high glycoform, with glucose concentration […] 4.5 g/L), and then appropriate amounts of 10 wt % fetal bovine serum (FBS), 1 wt % penicillin and streptomycin are added. Cells are cultured at 37° C. in humidified air with 5% (volume fraction) CO2 for 2 days.
The above Hela cells (2×10^3/well) are seeded in 96-well plates for 24 h without light. 100 μL medium and 100 μL aqueous solution of RB with concentrations of 80, 40, 20, 10, 5 μmol/L or 100 μL 0.01 mol/L PBS buffer (phosphate buffered saline) are added respectively, and treated for 24 h, thereafter the cells are washed 3 times with PBS buffer.
DMEM (comprising FBS) medium is added to the 96-well plates for 24 hours in the absence of light. An additional 10 μL of Cell Counting Kit-8 (CCK-8 kit) (Beyotime Biotechnology Co. Ltd.) and 90 μL of DMEM are added to each well, and the light and magnetic field strength are controlled for a subsequent incubation of 30 minutes. The absorbance at 450 nm is read using a microplate reader. Cell Viability (CV) of Hela cells is calculated using the following equation: […]
Where As is the absorbance of HeLa cells comprising photosensitizer (PS), Ac is the absorbance of Hela cells without PS and Ab is the absorbance of those without PS and HeLa cells.
The change rate of half inhibitory concentration, mfeP (Cell Viability (%)) is obtained as follows: mfeP=(IC50,0−IC50,B)/IC50,B×100%, where IC50,0 is half inhibitory concentration at magnetic field strength of 0 mT and IC50,B is half inhibitory concentration at magnetic field strength of B.
Under white light with lighting conditions of 400-700 nm, the power of 5 mW·cm^−2, test is carried out in a magnetic field with strengths of 0-800 mT, and the irradiation and the magnetic field perform for 10 min. The results of the test calculations for mfeP (Cell Viability (%)) at different concentrations of RB and each magnetic field strength are shown in FIG. 8. The RB half inhibitory concentration μmol/L at magnetic field strength of B calculated by logistic regression model fitting according to FIG. 8 are shown in Table 2 below.
In above experiment, with final concentration of photosensitizer of 30 mol/L, CV (%) and mfe (CV) (%) measured and calculated at each magnetic field strength are specifically shown in Table 3, where mfe(CV)=(CV0−CVB)/CV0×100%.

O=C1OC2(c3cc(I)c(O)c(I)c3Oc3c2cc(I)c(O)c3I)c2c(Cl)c(Cl)c(Cl)c(Cl)c21 [RB, Rose Bengal]
systemic toxicity (H&E staining of major organs) ([1]; heart, liver, spleen, lungs and kidney, day 14, FIG. 20): do not result in systemic toxicity | body weight loss or other abnormal signs ([1]; mice, 14 days): No body weight loss or other abnormal signs | mfeP (Cell Viability(%), change rate of half inhibitory concentration) ([2]; MF 14 mT vs 0 mT): −21% and −21.5% | mfeP (Cell Viability(%), change rate of half inhibitory concentration) ([2]; MF 40 mT vs 0 mT): 8.1% | mfeP (Cell Viability(%), change rate of half inhibitory concentration) ([2]; MF 90 mT vs 0 mT): 13.3% | mfeP (Cell Viability(%), change rate of half inhibitory concentration) ([2]; MF 150 mT vs 0 mT): 14.8% | mfeP (Cell Viability(%), change rate of half inhibitory concentration) ([2]; MF 250 mT vs 0 mT): 22.4% | mfeP (Cell Viability(%), change rate of half inhibitory concentration) ([2]; MF 575 mT vs 0 mT): 22.1% | mfeP (Cell Viability(%), change rate of half inhibitory concentration) ([2]; MF 700 mT vs 0 mT): −11.1% | mfeP (Cell Viability(%), change rate of half inhibitory concentration) ([2]; MF 800 mT vs 0 mT): −58% | CV(%) (cell viability) ([2]; MF 0 mT): 71.1 ± 0.5% | CV(%) (cell viability) ([2]; MF 14 mT): 89.8 ± 4.2% | CV(%) (cell viability) ([2]; MF 150 mT): 72.5 ± 3.2% | CV(%) (cell viability) ([2]; MF 250 mT): 59.9 ± 2.6% | CV(%) (cell viability) ([2]; MF 400 mT): 42.3 ± 6.7% | CV(%) (cell viability) ([2]; MF 575 mT): 74.1 ± 0.6% | CV(%) (cell viability) ([2]; MF 700 mT): 78.3 ± 3.2% | CV(%) (cell viability) ([2]; MF 800 mT): 83.0 ± 0.5% | mfe(CV)(%) =(CV0−CVB)/CV0×100% ([2]; MF 0 mT): 0% | mfe(CV)(%) =(CV0−CVB)/CV0×100% ([2]; MF 14 mT): −26.3% | mfe(CV)(%) =(CV0−CVB)/CV0×100% ([2]; MF 150 mT): −1.97% | mfe(CV)(%) =(CV0−CVB)/CV0×100% ([2]; MF 250 mT): 15.8% | mfe(CV)(%) =(CV0−CVB)/CV0×100% ([2]; MF 400 mT): 40.5% | mfe(CV)(%) =(CV0−CVB)/CV0×100% ([2]; MF 575 mT): −4.2% | mfe(CV)(%) =(CV0−CVB)/CV0×100% ([2]; MF 700 mT): −10.13% | mfe(CV)(%) =(CV0−CVB)/CV0×100% ([2]; MF 800 mT): −16.7% | IC50 ([2]; MF 0 mT): 34.2 ± 1.7 µM | IC50 ([2]; MF 14 mT): 41.6 ± 1.4 µM | IC50 ([2]; MF 40 mT): 31.5 ± 1 µM | IC50 ([2]; MF 90 mT): 29.7 ± 0.7 µM | IC50 ([2]; MF 150 mT): 29.2 ± 0.6 µM | IC50 ([2]; MF 250 mT): 26.6 ± 0.3 µM | IC50 ([2]; MF 400 mT): 26.1 ± 0.8 µM | IC50 ([2]; MF 575 mT): 26.7 ± 1.9 µM | IC50 ([2]; MF 700 mT): 38 ± 1.1 µM | IC50 ([2]; MF 800 mT): 54.1 ± 0.8 µM
